Results from patent publication US8067445B2, “N,N-disubstituted aminoalkylbiphenyl antagonists of prostaglandin D2 receptors” (Panmira Pharmaceuticals, LLC, priority 2008, dated 2011).

Columns and labels:
[1] = target: T1, human DP2 receptor (Homo sapiens, UniProt Q9Y5Y4); experiment: DP2/CRTH2 radioligand binding assay ([3H]PGD2); details: [3H]PGD2 binding, membranes of HEK293 cells expressing human DP2; read-out: hDP2
T1 construct: expressed in transfected cells
T1 sequence (Q9Y5Y4 1-395): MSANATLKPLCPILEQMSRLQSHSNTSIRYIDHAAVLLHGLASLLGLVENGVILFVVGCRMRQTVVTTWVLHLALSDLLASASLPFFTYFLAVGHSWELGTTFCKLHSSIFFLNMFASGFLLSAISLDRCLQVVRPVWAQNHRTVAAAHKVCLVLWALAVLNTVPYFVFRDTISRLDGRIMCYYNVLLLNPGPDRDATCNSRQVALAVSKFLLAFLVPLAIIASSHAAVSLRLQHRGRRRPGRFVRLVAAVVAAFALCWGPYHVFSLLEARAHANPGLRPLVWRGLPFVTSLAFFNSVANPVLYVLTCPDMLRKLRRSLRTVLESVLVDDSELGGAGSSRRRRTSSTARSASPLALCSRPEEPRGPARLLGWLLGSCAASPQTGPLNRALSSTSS
Summary of the method: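 Membranes from HEK293 cells stably expressing recombinant human DP2 incubated 60 min at room temperature with 1 nM [3H]PGD2 and compound in pH 7.4 Hepes/MnCl2/EDTA buffer, ± 0.2% human serum albumin. Bound radioactivity measured after filtration; non-specific binding defined with 10 μM PGD2. IC50 from titration curves.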

[2] = target: T2, recombinant human CRTH2 receptor (Homo sapiens, UniProt Q9Y5Y4); experiment: GTPγS binding assay; assay type: biochemical; details: +HSA (0.2% human serum albumin), 80 nM PGD2, CHO cell membranes; read-out: hDP2 GTPγS μM (+HSA)
T2 construct: expressed in transfected cells
T2 sequence (Q9Y5Y4 1-395): T1 sequence (Q9Y5Y4 1-395)
Procedure: The ability of a compound to inhibit binding of GTP to DP2 is assessed via a membrane GTPγS assay. CHO cells stably expressing the recombinant human CRTH2 receptor are resuspended in 10 mM Hepes, 7.4 containing 1 mM DTT, lysed and centrifuged at 75,000×g to pellet the membranes. The membranes are resuspended in 10 mM Hepes, 7.4 containing 1 mM DTT and 10% glycerol. […] The reactions are terminated by rapid filtration through Whatman GF/B glass fibre filter plates. The filter plates are washed 3 times with 1 ml cold Assay Buffer and dried. Scintillant is then added to the plates and the radioactivity retained on the filters is determined on a Packard TopCount (Perkin Elmer). Specific binding is determined as total radioactive binding minus non-specific binding in the absence of the ligand (80 nM PGD2). IC50s were determined using Graphpad prism analysis of drug titration curves.

[3] = target: T3, human DP1 receptor (Homo sapiens, UniProt Q13258); experiment: DP1 radioligand binding assay ([3H]BWA868C, platelet membranes); details: [3H]BWA868C binding, human platelet membranes; read-out: hDP1
T3 construct: tissue Biological Specialty Corporation; host or cells: human platelet membranes
T3 sequence (Q13258 1-359): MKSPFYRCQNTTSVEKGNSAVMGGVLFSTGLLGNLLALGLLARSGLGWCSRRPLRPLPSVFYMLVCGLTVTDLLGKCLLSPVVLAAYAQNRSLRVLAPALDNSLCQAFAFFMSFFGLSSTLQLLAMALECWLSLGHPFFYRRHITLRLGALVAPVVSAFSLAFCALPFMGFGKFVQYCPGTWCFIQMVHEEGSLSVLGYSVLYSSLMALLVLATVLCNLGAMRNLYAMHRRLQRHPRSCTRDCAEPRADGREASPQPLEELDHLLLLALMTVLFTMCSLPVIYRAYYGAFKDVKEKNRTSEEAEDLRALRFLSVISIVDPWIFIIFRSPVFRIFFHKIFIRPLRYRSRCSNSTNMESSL
Summary of the method: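 Human platelet membranes (20 μg protein/well) incubated 60 min at room temperature with 2 nM [3H]BWA868C and compound in 50 mM Hepes, 10 mM MnCl2, 1 mM EDTA, pH 7.4, ± 0.2% human serum albumin. Bound radioactivity measured after filtration; nonspecific binding defined with 10 μM BWA868C; IC50 from titration curves.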

Row | IC50 [1] [nM] | IC50 [2] [µM] | IC50 [3] [nM] | Compound
1 | < 300 | < 0.3 | 300 to 1000 | CCN(Cc1cc(C(F)(F)F)ccc1-c1ccc(F)c(CC(=O)O)c1)C(=O)OCc1ccccc1 [Compound 1-127, {2′-[(Benzyloxycarbonyl-ethyl-amino)-methyl]-4-fluoro-4′-trifluoromethyl-biphenyl-3-yl}-acetic acid]
2 | < 300 | < 0.3 | 300 to 1000 | CCN(Cc1cc(C(F)(F)F)ccc1-c1cc(CC(=O)O)ccc1OCc1ccccc1)C(=O)OCc1ccccc1 [Compound 1-128, {6-Benzyloxy-2′-[(benzyloxycarbonyl-ethyl-amino)-methyl]-4′-trifluoromethyl-biphenyl-3-yl}-acetic acid]
3 | < 300 | < 0.3 | 1000 to 30000 | CCN(Cc1cc(C(F)(F)F)ccc1-c1cc(CC(=O)O)ccc1OCC1CC1)C(=O)OCc1ccccc1 [Compound 1-130]
4 | < 300 | < 0.3 | 1000 to 30000 | CCN(Cc1cc(C(F)(F)F)ccc1-c1cc(CC(=O)O)ccc1OC)C(=O)C1(c2ccc(Cl)cc2Cl)CC1 [Compound 1-131, [2′-({[1-(2,4-Dichloro-phenyl)-cyclopropanecarbonyl]-ethyl-amino}-methyl)-6-methoxy-4′-trifluoromethyl-biphenyl-3-yl]-acetic acid]
5 | < 300 | < 0.3 | 1000 to 30000 | CCN(Cc1cc(C(F)(F)F)ccc1-c1cc(CC(=O)O)cc(C(F)(F)F)c1)C(=O)C1CC1 [Compound 1-136, {2′-[(Cyclopropanecarbonyl-ethyl-amino)-methyl]-5,4′-bis-trifluoromethyl-biphenyl-3-yl}-acetic acid]
6 | < 300 | < 0.3 | 1000 to 30000 | CCOc1ccc(-c2ccc(-c3cc(CC(=O)O)ccc3OC)c(CN(CC)C(=O)C3CC3)c2)cn1 [Compound 1-227, [2′-[(Cyclopropanecarbonyl-ethyl-amino)-methyl]-4′-(6-ethoxy-pyridin-3-yl)-6-methoxy-biphenyl-3-yl]-acetic acid]
